We go through 14 molecules from US9828345B2, “Phenylpyrazole derivatives as potent ROCK1 and ROCK2 inhibitors” (BRISTOL-MYERS SQUIBB COMPANY, priority 2013, dated 2017).

The target in one test is ROCK1 (Homo sapiens, UniProt Q13464). Description: ROCK assay (Caliper LABCHIP peptide phosphorylation), ROCK1. In kind it is biochemical. The note with it: 5 μM ATP, 1.5 μM peptide substrate.
For another test, the target named is ROCK2 (Homo sapiens, UniProt O75116). Description: ROCK assay (Caliper LABCHIP peptide phosphorylation), ROCK2. In kind it is biochemical. The following applies: 5 μM ATP, 1.5 μM peptide substrate.
Test [1] has as its system IL-1 beta-induced coronary stenosis. The following applies: long term treatment; cited from earlier work.
In a further test the test system is rat stroke model. The note with it: in vivo; cited from earlier work.
The next test has as its system neointimal formation. The following applies: rats; cited from earlier work.
The subject of test [2] is congestive heart failure in Dahl salt-sensitive rats. The note with it: rat, in vivo; cited from earlier work.
Test [3] concerns spontaneously hypertensive rat, renal hypertensive rat and deoxycortisone acetate salt hypertensive rat models. The following applies: cited from earlier work.

Read-outs that look alike come from different tables or passages of the source.

Sequence of ROCK2 (O75116 whole entry, species assumed): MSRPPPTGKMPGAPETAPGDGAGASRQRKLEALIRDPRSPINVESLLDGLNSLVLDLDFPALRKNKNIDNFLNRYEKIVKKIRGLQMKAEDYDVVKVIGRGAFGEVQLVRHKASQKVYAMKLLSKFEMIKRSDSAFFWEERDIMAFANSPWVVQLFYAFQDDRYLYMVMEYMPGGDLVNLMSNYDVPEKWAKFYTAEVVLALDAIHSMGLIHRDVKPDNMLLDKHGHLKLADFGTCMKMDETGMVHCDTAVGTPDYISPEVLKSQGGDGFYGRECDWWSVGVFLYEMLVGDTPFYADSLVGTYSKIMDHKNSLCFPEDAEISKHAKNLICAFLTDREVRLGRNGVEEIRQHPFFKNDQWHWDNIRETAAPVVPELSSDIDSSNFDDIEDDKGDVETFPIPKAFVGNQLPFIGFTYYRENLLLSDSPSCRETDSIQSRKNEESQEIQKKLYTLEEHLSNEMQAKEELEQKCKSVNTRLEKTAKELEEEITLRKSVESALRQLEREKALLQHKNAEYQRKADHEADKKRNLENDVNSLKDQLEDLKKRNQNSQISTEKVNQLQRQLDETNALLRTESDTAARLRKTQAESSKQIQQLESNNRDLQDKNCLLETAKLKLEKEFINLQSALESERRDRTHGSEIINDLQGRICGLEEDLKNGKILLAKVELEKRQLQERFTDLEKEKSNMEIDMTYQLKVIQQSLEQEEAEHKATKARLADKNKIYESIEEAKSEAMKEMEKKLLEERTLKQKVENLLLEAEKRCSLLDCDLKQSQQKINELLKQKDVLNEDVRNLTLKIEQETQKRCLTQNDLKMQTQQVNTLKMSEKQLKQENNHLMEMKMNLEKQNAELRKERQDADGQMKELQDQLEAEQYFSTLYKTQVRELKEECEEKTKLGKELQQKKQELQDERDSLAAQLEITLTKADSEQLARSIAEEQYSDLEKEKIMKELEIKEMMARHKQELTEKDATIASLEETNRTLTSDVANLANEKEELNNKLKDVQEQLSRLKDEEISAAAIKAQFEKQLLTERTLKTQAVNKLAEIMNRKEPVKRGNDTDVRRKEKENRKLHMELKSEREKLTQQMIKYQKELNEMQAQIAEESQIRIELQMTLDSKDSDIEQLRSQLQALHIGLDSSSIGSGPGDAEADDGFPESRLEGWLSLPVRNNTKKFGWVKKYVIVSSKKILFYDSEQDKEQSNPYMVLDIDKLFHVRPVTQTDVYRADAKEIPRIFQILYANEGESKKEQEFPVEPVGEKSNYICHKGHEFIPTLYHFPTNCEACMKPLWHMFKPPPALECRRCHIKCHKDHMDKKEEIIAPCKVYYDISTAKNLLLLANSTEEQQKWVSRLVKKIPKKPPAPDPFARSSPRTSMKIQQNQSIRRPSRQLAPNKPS
Sequence of ROCK1 (Q13464 whole entry, species assumed): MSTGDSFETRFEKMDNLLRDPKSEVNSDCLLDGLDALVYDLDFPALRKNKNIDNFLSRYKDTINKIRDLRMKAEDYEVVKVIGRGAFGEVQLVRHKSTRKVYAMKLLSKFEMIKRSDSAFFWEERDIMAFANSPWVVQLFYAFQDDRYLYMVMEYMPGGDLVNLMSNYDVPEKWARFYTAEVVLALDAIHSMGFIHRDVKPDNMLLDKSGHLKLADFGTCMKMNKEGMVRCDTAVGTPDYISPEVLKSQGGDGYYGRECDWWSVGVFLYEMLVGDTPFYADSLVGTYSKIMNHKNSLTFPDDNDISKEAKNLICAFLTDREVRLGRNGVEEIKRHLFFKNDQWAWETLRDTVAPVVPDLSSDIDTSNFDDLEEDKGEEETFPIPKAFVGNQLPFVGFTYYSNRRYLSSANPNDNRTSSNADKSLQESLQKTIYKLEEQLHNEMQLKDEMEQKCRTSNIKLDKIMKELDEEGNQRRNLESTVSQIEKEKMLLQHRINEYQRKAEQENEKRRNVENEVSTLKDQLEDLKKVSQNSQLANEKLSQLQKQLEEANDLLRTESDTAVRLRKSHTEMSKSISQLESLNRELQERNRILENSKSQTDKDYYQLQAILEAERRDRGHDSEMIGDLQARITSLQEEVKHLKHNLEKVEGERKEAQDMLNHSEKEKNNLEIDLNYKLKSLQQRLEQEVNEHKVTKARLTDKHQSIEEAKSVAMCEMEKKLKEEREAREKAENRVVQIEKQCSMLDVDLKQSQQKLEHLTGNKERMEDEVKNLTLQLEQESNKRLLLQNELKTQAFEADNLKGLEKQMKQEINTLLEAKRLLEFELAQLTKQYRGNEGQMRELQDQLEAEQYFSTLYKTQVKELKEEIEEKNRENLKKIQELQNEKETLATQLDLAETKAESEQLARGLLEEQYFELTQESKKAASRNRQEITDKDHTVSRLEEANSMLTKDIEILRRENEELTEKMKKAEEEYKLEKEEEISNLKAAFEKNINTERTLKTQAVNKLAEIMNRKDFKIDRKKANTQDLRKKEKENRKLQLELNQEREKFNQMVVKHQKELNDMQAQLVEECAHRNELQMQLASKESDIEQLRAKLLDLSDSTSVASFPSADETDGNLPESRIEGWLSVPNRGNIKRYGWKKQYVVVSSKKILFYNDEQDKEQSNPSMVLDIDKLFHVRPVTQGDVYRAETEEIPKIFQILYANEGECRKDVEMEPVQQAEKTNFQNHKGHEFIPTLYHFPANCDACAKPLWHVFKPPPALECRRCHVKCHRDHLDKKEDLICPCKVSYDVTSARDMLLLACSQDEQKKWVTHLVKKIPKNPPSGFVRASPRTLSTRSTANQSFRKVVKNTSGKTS

A word on the IC50: it is the concentration that gives 50% inhibition. Turning to `O=C(Cc1ccccc1Cl)Nc1ccc(-c2cn[nH]c2)cc1` [Example 29, N-(4-(1H-Pyrazol-4-yl)phenyl)-2-(2-chlorophenyl)acetamide], the results for the IC50 on ROCK1 and against ROCK2 were 19.6 nM and 4.06 nM, respectively.

Consider `O=S(=O)(c1cccc2cnccc12)N1CCCNCC1` [fasudil], for which, in test [1], the coronary constrictive remodeling result is “promote a regression of coronary constrictive remodeling” and the coronary stenosis result is reported as “progressively reduce coronary stenosis”. Further, the “infarct size and neurologic deficit” value with rat stroke model was “reduce both the infarct size and neurologic deficit”.

As for `COc1cc(NC(=O)[C@H](N)Cc2cccc(C(F)(F)F)c2)ccc1-c1cn[nH]c1` [Example 11, (R)-2-amino-N-(3-methoxy-4-(1H-pyrazol-4-yl)phenyl)-3-(3-(trifluoromethyl)phenyl)propanamide], the half-inhibitory concentration (IC50) amounted to 50 nM at ROCK1 and 14.3 nM against ROCK2.

On to `COc1cc(NC(=O)[C@H](N)Cc2ccccc2C(F)(F)F)ccc1-c1cn[nH]c1` [Example 12, (R)-2-amino-N-(3-methoxy-4-(1H-pyrazol-4-yl)phenyl)-3-(2-(trifluoromethyl)phenyl)propanamide], for which the figures for the IC50 on ROCK1 and against ROCK2 were 19.9 nM and 23.6 nM, respectively.

On to `N[C@H](CCc1ccccc1)C(=O)Nc1ccc(-c2cn[nH]c2)cc1` [Example 28, (R)—N-(4-(1H-Pyrazol-4-yl)phenyl)-2-amino-4-phenylbutanamide], for which the IC50 against ROCK1 turned out to be 42.5 nM; at ROCK2, 17.8 nM.

As to `COc1cc(NC(=O)[C@@H](N)Cc2csc3ccccc23)ccc1-c1cn[nH]c1` [Example 9, (S)-2-amino-3-(benzo[b]thiophen-3-yl)-N-(3-methoxy-4-(1H-pyrazol-4-yl)phenyl) propanamide], the IC50 is 31.6 nM at ROCK1 and 17.9 nM at ROCK2.

On to `C[C@@H](N)[C@H]1CC[C@H](C(=O)Nc2ccncc2)CC1` [Example Y-27632, Y-27632], for which the neointimal formation entry in the test with neointimal formation is on record as “inhibited neointimal formation”. The “ventricular hypertrophy, fibrosis and function” value in test [2] is “improve ventricular hypertrophy, fibrosis and function”. The blood pressure result in test [3] (control rats) is “only a minor effect on blood pressure”; in test [3] (three rat models of hypertension), “significantly decrease blood pressure”.

On to `CN(C)CCOc1cc(-c2cn[nH]c2)c(F)cc1NC(=O)[C@H](N)CCc1ccccc1` [Example 27, (R)-2-Amino-N-(2-(2-(dimethylamino)ethoxy)-5-fluoro-4-(1H-pyrazol-4-yl)phenyl)-4-phenylbutanamide], for which the IC50 is 874 nM against ROCK1 and 342 nM on ROCK2.

On to `COc1cc(NC(=O)[C@H](N)Cc2cc(F)cc(F)c2)ccc1-c1cn[nH]c1` [Example 14, (R)-2-amino-3-(3,5-difluorophenyl)-N-(3-methoxy-4-(1H-pyrazol-4-yl)phenyl) propanamide], for which the IC50 is 12.6 nM on ROCK1 and 13.4 nM against ROCK2.

Regarding `COc1cc(NC(=O)[C@H](N)Cc2ccccc2Cl)ccc1-c1cn[nH]c1` [Example 19, (R)-2-amino-3-(2-chlorophenyl)-N-(3-methoxy-4-(1H-pyrazol-4-yl)phenyl) propanamide], the IC50 came to 13.9 nM at ROCK1 and 37.5 nM at ROCK2.

As to `COc1cc(NC(=O)[C@H](N)CCc2ccccc2)ccc1-c1c[nH]nc1C` [Example 30, (R)-2-Amino-N-(3-methoxy-4-(3-methyl-1H-pyrazol-4-yl)phenyl)-4-phenylbutanamide], the IC50 against ROCK1 was 232 nM; on ROCK2 it was 167 nM.

Take `O=C(Cc1ccccc1Cl)Nc1ccc(-c2cn[nH]c2)cc1OCCN1CCCC1` [Example 23, N-(4-(1H-Pyrazol-4-yl)-2-(2-(pyrrolidin-1-yl)ethoxy)phenyl)-2-(2-chlorophenyl)acetamide]: the IC50 is 111 nM against ROCK1 and 8.51 nM at ROCK2.

For the molecule `COc1cc(NC(=O)[C@H](N)Cc2ccc(-c3ccccc3)cc2)ccc1-c1cn[nH]c1` [Example 13, (R)-3-([1,1′-biphenyl]-4-yl)-2-amino-N-(3-methoxy-4-(1H-pyrazol-4-yl)phenyl)propanamide], the IC50 was found to be 68.4 nM at ROCK1 and 10.3 nM at ROCK2.

As for `COc1cc(NC(=O)[C@H](N)Cc2ccc3ccccc3c2)ccc1-c1cn[nH]c1` [Example 6, (R)-2-amino-N-(3-methoxy-4-(1H-pyrazol-4-yl)phenyl)-3-(naphthalen-2-yl)propanamide], the IC50 against ROCK1 worked out at 8.78 nM; against ROCK2 it was 3.25 nM.
